In the supplement of paper PMC12137928:
Where a name gives a salt, the structure may show the parent alone.

Test system: HCT116
Settings: 72 h
Summary of the method: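 IC50 and maximal efficacy were derived from four-parameter Hill curve fits. The underlying CellTiter-Glo luminescence was scaled so that vehicle equals 0% and positive control equals -100%, and was then pattern-corrected. HCT116 cells had been seeded in 1536-well plates at 250 per well.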

SMILES	IC50 cell viability (ICRF193 0 nM) [µM]	IC50 cell viability (ICRF193 200 nM) [µM]
O=C1NS(=O)(=O)c2ccccc21 [Saccharin]	> 45.8	> 45.8
C[C@H](NCc1ccc(OCc2cccc(F)c2)cc1)C(N)=O [Safinamide]	> 45.8	> 45.8
CC(C)(C)NCC(O)c1ccc(O)c(CO)c1 (stereo unspecified) [Salbutamol]	> 45.8	> 45.8
OCc1ccccc1O [Salicyl alcohol]	> 45.8	> 45.8
NC(=O)c1ccccc1O [Salicylamide]	> 45.8	> 45.8
OC[C@H]1O[C@@H](OCCc2ccc(O)cc2)[C@H](O)[C@@H](O)[C@@H]1O [Salidroside]	> 45.8	> 45.8
O=C(Oc1ccccc1C(=O)O)c1ccccc1O [Salsalate]	> 45.8	> 45.8
O=C(O)c1cn(-c2ccc(F)cc2)c2cc(N3CCNCC3)c(F)cc2c1=O [Sarafloxacin hydrochloride]	> 45.8	> 45.8
COc1cccc(CCc2ccccc2OCC(CN(C)C)OC(=O)CCC(=O)O)c1 (stereo unspecified) [Sarpogrelate hydrochloride]	> 45.8	> 45.8
N#C[C@@H]1C[C@@H]2C[C@@H]2N1C(=O)[C@@H](N)C12CC3CC(CC(O)(C3)C1)C2 [Saxagliptin]	> 45.8	> 45.8
COc1cc2c(c(OC)c1OC)-c1c(cc3c(c1OC)OCO3)C[C@H](C)[C@@](C)(O)C2 [Schisandrol B]	> 45.8	> 45.8
CN1[C@@H]2C[C@@H](OC(=O)[C@H](CO)c3ccccc3)C[C@H]1[C@@H]1O[C@@H]12 [Scopolamine hydrobromide]	> 45.8	> 45.8
C[N+]1(C)[C@@H]2C[C@@H](OC(=O)[C@H](CO)c3ccccc3)C[C@H]1[C@@H]1O[C@@H]12 [Scopolamine methylbromide]	> 45.8	> 45.8
Cc1ncc([N+](=O)[O-])n1CC(C)O (stereo unspecified) [Secnidazole]	> 45.8	> 45.8
C#CCN(C)[C@H](C)Cc1ccccc1 [Selegiline hydrochloride]	> 45.8	> 45.8
C[Se]CC[C@H](N)C(=O)O [Selenomethionine]	> 45.8	> 45.8
C=C1/C(=C\C=C2/CCC[C@]3(C)[C@@H]([C@H](C)/C=C/C=C/C(O)(CC)CC)CC[C@@H]23)C[C@@H](O)C[C@@H]1O [Seocalcitol]	> 45.8	> 45.8
CC1=C(C)C(=O)C(C(CCCCCC(=O)O)c2ccccc2)=C(C)C1=O (stereo unspecified) [Seratrodast]	> 45.8	> 45.8
C=CCN.ClCC1CO1 (stereo unspecified) [Sevelamer Hydrochloride (Technical Grade)]	> 45.8	> 45.8
FCOC(C(F)(F)F)C(F)(F)F [Sevoflurane]	> 45.8	> 45.8

SMILES	IC50 cell viability (ICRF193 0 nM) [µM]	IC50 cell viability (ICRF193 200 nM) [µM]
Cc1cc(O)c2c(c1)O[C@@]1(C)CC[C@H]3C(C)(C)CCC[C@]34CO[C@@H]2[C@H]41 [Siccanin]	> 45.8	> 45.8
CCCc1nn(C)c2c(=O)[nH]c(-c3cc(S(=O)(=O)N4CCN(C)CC4)ccc3OCC)nc12 [Sildenafil citrate]	> 45.8	> 45.8
C[C@H](Cc1cc2c(c(C(N)=O)c1)N(CCCO)CC2)NCCOc1ccccc1OCC(F)(F)F [Silodosin]	> 45.8	> 45.8
COc1ccc2c(O[C@@H]3C[C@H]4C(=O)N[C@]5(C(=O)NS(=O)(=O)C6CC6)C[C@H]5/C=C\CCCCN(C)C(=O)[C@@H]4C3)cc(-c3nc(C(C)C)cs3)nc2c1C [Simeprevir]	> 45.8	> 45.8
CCCc1ccc(OCC(=O)N2CCN(C(=O)COc3ccc(CCC)cc3OC)CC2)c(OC)c1 [Simetride]	> 45.8	> 45.8
CSCC[C@H](NC(=O)[C@H](Cc1ccc(OS(=O)(=O)O)cc1)NC(=O)[C@@H](N)CC(=O)O)C(=O)NCC(=O)N[C@@H](Cc1c[nH]c2ccccc12)C(=O)N[C@@H](CCSC)C(=O)N[C@@H](CC(=O)O)C(=O)N[C@@H](Cc1ccccc1)C(N)=O [Sincalide]	> 45.8	> 45.8
N[C@@H]1CN(c2c(F)cc3c(=O)c(C(=O)O)cn([C@@H]4C[C@@H]4F)c3c2Cl)CC12CC2 [Sitafloxacin hydrate]	> 45.8	> 45.8
N[C@@H](CC(=O)N1CCn2c(nnc2C(F)(F)F)C1)Cc1cc(F)c(F)cc1F [Sitagliptin]	> 45.8	> 45.8
Cc1cc2c(cc1CC(=O)c1sccc1S(=O)(=O)Nc1onc(C)c1Cl)OCO2 [Sitaxentan]	> 45.8	> 45.8
CC(C)(C)C(=O)Oc1ccc(S(=O)(=O)Nc2ccccc2C(=O)NCC(=O)O)cc1 [Sivelestat sodium hydrate]	> 45.8	> 45.8
CC(C)COC(=O)OCN1C(=O)CN(CCN2CC(=O)N(COC(=O)OCC(C)C)C(=O)C2)CC1=O [Sobuzoxane]	> 45.8	> 45.8
O=S(=O)(O)CC(S)CS (stereo unspecified) [Sodium 2,3-dimercaptopropanesulfonate monohydrate]	> 45.8	> 45.8
O=S(=O)(O)CCS [Sodium 2-mercaptoethanesulfonate]	> 45.8	> 45.8
Oc1ccccc1-c1ccccc1 [Sodium 2-phenylphenate tetrahydrate]	> 45.8	> 45.8
Cc1ccc(C(=O)C(=O)O)cc1C [Sodium 3, 4-dimethylphenyl-glyoxylate]	> 45.8	> 45.8
O=C(O)CCCc1ccccc1 [Sodium 4-phenylbutyrate]	> 45.8	> 45.8
O=C([O-])CC([S-])C(=O)[O-].[Au+].[Na+].[Na+] (stereo unspecified) [Sodium aurothiomalate(I)]	> 45.8	> 45.8
O=C(O)c1cc(=O)c2c(OCC(O)COc3cccc4oc(C(=O)O)cc(=O)c34)cccc2o1 [Sodium cromoglycate]	> 45.8	> 45.8
CCCCCCCCCC(=O)NO [Sodium decanehydroxamate]	> 45.8	> 45.8
C[C@H](CCC(=O)O)[C@H]1CC[C@H]2[C@@H]3CC[C@@H]4C[C@H](O)CC[C@]4(C)[C@H]3C[C@H](O)[C@]12C [Sodium deoxycholate monohydrate]	> 45.8	> 45.8

SMILES	IC50 cell viability (ICRF193 0 nM) [µM]	IC50 cell viability (ICRF193 200 nM) [µM]
CCCCCCCCCCCCOS(=O)(=O)[O-].[Na+] [Sodium dodecyl sulfate]	> 45.8	> 45.8
CCCC(=O)Nc1c(I)cc(I)c(CC(CC)C(=O)O)c1I (stereo unspecified) [Sodium tyropanoate]	> 45.8	> 45.8
O=c1[nH]c(=O)c2[nH]c(O)nc2[nH]1 [Sodium urate]	> 45.8	> 45.8
CC1O[C@H](O[C@]2(O[C@H]3CC[C@@]4(C)C(=CC[C@H]5[C@@H]6C[C@H]7[C@H]([C@H](C)[C@H]8CC[C@H](C)CN87)[C@@]6(C)CC[C@@H]54)C3)C[C@@H](O[C@@H]3OC(CO)[C@@H](O)[C@@H](O)C3O)[C@@H](O)C(CO)O2)C(O)[C@@H](O)[C@H]1O (stereo partly drawn) [Solanine alpha]	> 45.8	> 45.8
O=C(O[C@H]1CN2CCC1CC2)N1CCc2ccccc2[C@@H]1c1ccccc1 [Solifenacin (hydrochloride)]	> 45.8	> 45.8
C/C=C/C=C/C(=O)O [Sorbic acid]	> 45.8	> 45.8
CCCCCCCCCCCCCCCC(=O)OC[C@@H](O)[C@H]1OC[C@H](O)[C@H]1O [Sorbitan monohexadecanoate]	> 45.8	> 45.8
CC(C)NCC(O)c1ccc(NS(C)(=O)=O)cc1 (stereo unspecified) [Sotalol]	> 45.8	> 45.8
C[C@@H]1CN(c2c(F)c(N)c3c(=O)c(C(=O)O)cn(C4CC4)c3c2F)C[C@H](C)N1 [Sparfloxacin]	> 45.8	> 45.8
C1CCN2C[C@@H]3C[C@@H](CN4CCCC[C@@H]34)[C@H]2C1 [Sparteine]	> 45.8	> 45.8
CN[C@@H]1[C@H](O)[C@H](NC)[C@H]2O[C@@]3(O)C(=O)C[C@@H](C)O[C@H]3O[C@@H]2[C@H]1O [Spectinomycin dihydrochloride]	> 45.8	> 45.8
O=C(CCCN1CCC2(CC1)C(=O)NCN2c1ccccc1)c1ccc(F)cc1 [Spiperone]	> 45.8	> 45.8
CO[C@@H]1[C@@H](O[C@@H]2O[C@H](C)[C@@H](O[C@H]3C[C@@](C)(O)[C@@H](O)[C@H](C)O3)[C@H](N(C)C)[C@H]2O)[C@@H](CC=O)C[C@@H](C)[C@@H](O[C@H]2CC[C@H](N(C)C)[C@@H](C)O2)/C=C/C=C/C[C@@H](C)OC(=O)C[C@H]1OC(C)=O [Spiramycin II]	> 45.8	> 45.8
CC(C)CCCC(C)CCCC(C)CCCCC(C)CCCC(C)CCCC(C)C (stereo unspecified) [Squalane]	> 45.8	> 45.8
CC(C)=CCC/C(C)=C/CC/C(C)=C/CC/C=C(\C)CC/C=C(\C)CCC=C(C)C [Squalene]	> 45.8	> 45.8
Cc1cn([C@H]2C=C[C@@H](CO)O2)c(=O)[nH]c1=O [Stavudine]	> 45.8	> 45.8
CC(C)(C)C(O)/C=C/c1ccc2c(c1)OCO2 (stereo unspecified) [Stiripentol]	> 45.8	> 45.8
CN[C@@H]1[C@H](O[C@H]2[C@H](O[C@H]3[C@H](O)[C@@H](O)[C@H](N=C(N)N)[C@@H](O)[C@@H]3N=C(N)N)O[C@@H](C)[C@]2(O)C=O)O[C@@H](CO)[C@H](O)[C@H]1O [Streptomycin sulfate]	> 45.8	> 45.8
